Data set [1] in a line: Survival rate of CTXTAN2 cells. It counts as cell-based. Conditions: rat. The text has this:
(§1) The above experimental result is much better than a standard of IC50 (50% inhibitory concentration). IC50 represents a concentration of a drug that is required for 50% survival rate of the cells, which means that a certain concentration of a drug is used to detect a cell mortality rate of 50%, and the certain concentration is also referred as 50% inhibitory concentration. Described in different ways, when a ratio of death cells to original cells is 50%, the corresponding concentration is 50% inhibitory concentration. The water-soluble peptide fluorescence material of the present disclosure has low toxicity and excellent compatibility to PC-3 cells, so as to avoid mass mortality of the cells. In addition, HeLa, MCF-7, CTXTAN2, PC12, WSI, 3T3L1 cells are also tested. The water-soluble peptide fluorescence material has excellent compatibility with these cells since the survival rate of these cell are all over 50%.

Data set [2] in a line: Fluorescence intensity and emission wavelength at different pH values. The format is physicochemical. The text has this: In Experimental Examples 210, 220, 230, 240, 250, 260, 270 and 280, the above water-soluble peptide fluorescence material is respectively placed in environments having a pH value of 10, 9, 8, 7, 6, 5, 4 and 3 for testing. In Experimental Examples 210 to 230, the water-soluble peptide fluorescence material is respectively placed in environments having the pH value of 10, 9 and 8.
Continuing in FIG. 5, which illustrates a fluorescence intensity and an emission wavelength of the water-soluble peptide fluorescence material of formula (III-10) at different pH values. In Experimental Examples 510, 520, 530, 540, 550, 560, 570 and 580, the water-soluble peptide fluorescence material of formula (III-10) is respectively placed in environments having a pH value of 10, 9, 8, 7, 6, 5, 4 and 3 for testing. In Experimental Examples 510 to 560, the water-soluble peptide fluorescence material is placed in environments having the pH value of 10 to 5, and two emission peaks are shown in FIG. 5. […] Then, the pH value is further decrease to 4 (Experimental Example 570) and 3 (Experimental Example 580), and only the emission peak at about 400 nm is remained, so the observed fluorescence has a color of purple in Experimental Examples 570 and 580. Therefore, the water-soluble peptide fluorescence material of formula (III-10) is able to detect and mark locations of acidic cells by change of the color.
Continuing in FIG. 7, which illustrates a fluorescence intensity and an emission wavelength of the water-soluble peptide fluorescence material of formula (III-21) at different pH values. In Experimental Examples 710, 720, 730, 740, 750, 760, 770 and 780, the water-soluble peptide fluorescence material of formula (III-21) is respectively placed in environments having a pH value of 10, 9, 8, 7, 6, 5, 4 and 3 for testing. In Experimental Examples 710 to 750, the water-soluble peptide fluorescence material is placed in environments having the pH value of 10 to 6. […] However, the fluorescence intensity of Experimental Examples 780 is decreased when the pH value is decreased from 4 to 3.
Continuing in FIG. 8, which illustrates a fluorescence intensity and an emission wavelength of the water-soluble peptide fluorescence material of formula (III-22) at different pH values. In Experimental Examples 810, 820, 830, 840, 850, 860, 870 and 880, the water-soluble peptide fluorescence material of formula (III-22) is respectively placed in environments having a pH value of 10, 9, 8, 7, 6, 5, 4 and 3 for testing. In Experimental Examples 810 to 850, the water-soluble peptide fluorescence material is respectively placed in environments having the pH value of 10 to 6. […] In addition, the fluorescence intensity of Experimental Example 860 (pH=5) is 90 times of the fluorescence intensity of Experimental Example 810 […], which represents that the water-soluble peptide fluorescence material has obvious light-emitting interval and easily to identify and detect positions of the acidic cells.
FIG. 10 illustrates a fluorescence intensity and an emission wavelength of the water-soluble peptide fluorescence material of formula (III-23) at different pH values. In Experimental Examples 1010, 1020, 1030, 1040, 1050, 1060, 1070 and 1080, the water-soluble peptide fluorescence material of formula (III-23) is respectively placed in environments having a pH value of 10, 9, 8, 7, 6, 5, 4 and 3 for testing. In Experimental Examples 1010 to 1050, the water-soluble peptide fluorescence material is respectively placed in environments having the pH value of 10 to 6. […] The water-soluble peptide fluorescence material not only provides obvious marker, but also achieves the same effect of the fluorescence at a low concentration, and thereby reduces the costs.
FIG. 11 illustrates a fluorescence intensity and an emission wavelength of the water-soluble peptide fluorescence material of formula (III-27) at different pH values. […]

A short description of data set [3]: Survival rate of HeLa cells. The format is cell-based. Particulars: human.
From the text: as §1

Data set [4] is described as follows: Survival rate of MCF-7 cells. Particulars: human. It counts as cell-based.
From the text: as §1

The nature of data set [5]: Survival rate of 3T3L1 cells. The format is cell-based. Particulars: mouse.
From the text: as §1

Data set [6] in a line: Survival rate of PC-3 cells in the fluorescence material. The format is cell-based. Conditions: human, two days, PC-3 cell.
From the text: as §1

Data set [7] can be described thus: Survival rate of PC12 cells. The format is cell-based. Conditions: rat.
From the text: as §1

Data set [8] concerns acidic cells in living cells. Kind of data set: Fluorescence marking of acidic cells in living cells, compared with Lysotracker. It counts as cell-based. The source says: The water-soluble peptide fluorescence material is designed to illuminate in acid, neutral or weak base environment, and following embodiments give an example illuminating in acid environment. FIGS. 1A, 1B and 1C are comparative pictures between a water-soluble peptide fluorescence material of the present disclosure and a traditional fluorescence material at the same concentration. The water-soluble peptide fluorescence material has a structure of following formula including a peptide sequence Phe-Asp-Gly-Glu-Ala (SEQ ID NO: 5):
Continuing in FIG. 1B to compare with FIG. 1A, FIG. 1B uses the water-soluble peptide fluorescence material of the present disclosure, which is also used to mark acidic cells in living cells. […] Accordingly, the water-soluble peptide fluorescence material is suitable for a biological fluorescence probe, so as to detect and mark positions of the acidic cells.
At the same concentration, the water-soluble peptide fluorescence material has the greater fluorescence intensity than that of Lysotracker. On this base, a dose of the water-soluble peptide fluorescence material could be decreased to achieve the same fluorescence intensity with the Lysotracker, so as to decrease medical costs and damage to human bodies.

Data set [9] is described as follows: Survival rate of WSI cells. The format is cell-based. Conditions: human.
From the text: as §1

Residues, ends and D or L forms follow the SMILES beside them. *: point of attachment. X1 = O=C1c2cccc3c(N4CCCCC4)ccc(c23)C(=O)C1CC(=O)* Bounds are passed on as bounds.

For orientation: viability means a read-out of living cells in per cent, often relative to untreated cells.

`C[C@H](NC(=O)[C@H](CCC(=O)O)NC(=O)CNC(=O)[C@H](CC(=O)O)NC(=O)[C@H](Cc1ccccc1)NC(=O)CC1C(=O)c2cccc3c(N4CCCCC4)ccc(c23)C1=O)C(=O)O` (stereo partly shown) (X1-FDGEA-OH): the viability in data set [1], in data set [3], in data set [4], in data set [5], in data set [7] and in [9] was greater than 50% each time. Further, the “ratio of fluorescence intensity pH 3 to pH 7” value in [2] (Experimental Examples 240 and 280) came to 25.5 times. Further, the fluorescence intensity entry in data set [2] (pH 3) was “about 900 fluorescent units”; in data set [2] (pH 4), “about 500 fluorescent units”; in data set [2] (pH 5), “about 350 fluorescent units”; in data set [2] (pH 6, compared to pH 10 to 7), “no significant change”; in data set [2] (pH 7, neutral environment), “slightly increased”; in data set [2] (pH 10, 9 and 8), “low fluorescence intensities”. Further, the color of fluorescence entry in [2] (pH 5) is “green”. Further, the emission peak result in data set [2] (pH 5) was “about 550 nm”. In [6], this molecule gave a viability at 48 h, 500 µM of 80%. Besides, the “fluorescence appearing at the acidic cells” value in data set [8] (living cells, FIGS. 1A/1B) is “green fluorescence”. For the same molecule, in data set [8] (overlapped picture FIG. 1C), the “cellular position of fluorescence compared with Lysotracker” value is “substantially the same as Lysotracker”. The “fluorescence intensity compared with Lysotracker” value in [8] (same concentration, acidic cells in living cells) is given as “greater than that of the red fluorescence of Lysotracker”.

Values taken from US10222381B2, “Water-soluble peptide fluorescence material” (NATIONAL CHIAO TUNG UNIVERSITY, priority 2015, dated 2019).
